≈ marks a conversion by molar mass, not a printed value.
How the values were obtained:
[1] = system: Streptococcus pneumoniae A9585; assay: MIC by conventional serial broth dilution assay; format: cell-based
[2] = system: Streptococcus pneumoniae/penicillin intermediate A27881; assay: MIC by conventional serial broth dilution assay; format: cell-based
[3] = system: Streptococcus pneumoniae/penicillin resistant A28272; assay: MIC by conventional serial broth dilution assay; format: cell-based
[4] = system: Streptococcus pyogenes A9604; assay: MIC by conventional serial broth dilution assay; format: cell-based
[5] = system: Enterococcus faecalis A20688; assay: MIC by conventional serial broth dilution assay; format: cell-based
[6] = system: Enterococcus faecalis A27519; assay: MIC by conventional serial broth dilution assay; format: cell-based
[7] = system: Enterococcus faecium A24885; assay: MIC by conventional serial broth dilution assay; format: cell-based
[8] = system: Enterococcus faecium/thiostrepton resistant (10 ug/ml) SC15829; assay: MIC by conventional serial broth dilution assay; format: cell-based
[9] = system: Enterococcus avium A27456; assay: MIC by conventional serial broth dilution assay; format: cell-based
[10] = system: Staphylococcus aureus A9537; assay: MIC by conventional serial broth dilution assay; format: cell-based
[11] = system: Staphylococcus aureus/β-lactamase positive A15090; assay: MIC by conventional serial broth dilution assay; format: cell-based
[12] = system: Staphylococcus aureus/QC/ATCC#29213 A24407; assay: MIC by conventional serial broth dilution assay; format: cell-based; details: ATCC29213
[13] = system: Staphylococcus aureus/hetero methicillin resistant A27218; assay: MIC by conventional serial broth dilution assay; format: cell-based
[14] = system: Staphylococcus aureus/homo methicillin resistant A27223; assay: MIC by conventional serial broth dilution assay; format: cell-based
[15] = system: Micrococcus luteus A9852; assay: MIC by conventional serial broth dilution assay; format: cell-based
[16] = system: Bacillus subtilis A9506A; assay: MIC by conventional serial broth dilution assay; format: cell-based
[17] = system: Staphylococcus epidermidis A24548; assay: MIC by conventional serial broth dilution assay; format: cell-based
[18] = system: Staphylococcus haemolyticus A27298; assay: MIC by conventional serial broth dilution assay; format: cell-based
[19] = system: Escherichia coli A15119; assay: MIC by conventional serial broth dilution assay; format: cell-based
[20] = system: Escherichia coli A22292; assay: MIC by conventional serial broth dilution assay; format: cell-based
[21] = system: Escherichia coli/AcrA::Kan A28901; assay: MIC by conventional serial broth dilution assay; format: cell-based
[22] = system: Salmonella enteritidis A9531; assay: MIC by conventional serial broth dilution assay; format: cell-based; details: Salmonella enterica
[23] = system: Moraxella catarrhalis/β-lactamase positive A22344; assay: MIC by conventional serial broth dilution assay; format: cell-based
[24] = system: Moraxella catarrhalis/β-lactamase positive A25409; assay: MIC by conventional serial broth dilution assay; format: cell-based
[25] = system: Haemophilus influenzae/β-lactamase negative A20191; assay: MIC by conventional serial broth dilution assay; format: cell-based
[26] = system: Haemophilus influenzae/β-lactamase negative A20183; assay: MIC by conventional serial broth dilution assay; format: cell-based
[27] = system: Haemophilus influenzae/β-lactamase positive A21515; assay: MIC by conventional serial broth dilution assay; format: cell-based
[28] = system: Salmonella/WT A27207; assay: MIC by conventional serial broth dilution assay; format: cell-based
[29] = system: Salmonella/RE A27208; assay: MIC by conventional serial broth dilution assay; format: cell-based
[30] = system: Staphylococcus aureus A15090; assay: systemic Staph. aureus infection model in mice; format: in vivo, female ICR mice infected with Staphylococcus aureus; details: subcutaneous
Description: Nocathiacin I was evaluated for antibiotic activity in vivo, in a systemic infection model using female ICR mice. The animals were infected IP with 6.5×10^6 CFU of an overnight culture of Staphylococcus aureus A15090 suspended in 7% mucin. Nocathiacin I was dissolved in a test formulation consisting of 10% DMSO, 5% Tween 80 and 85% water. The solution was administered subcutaneously at 100 mg/kg total dose (2×50 mg/kg doses at 1 and 4 hours post-infection). […] The PD50 of nocathiacin I was determined to be <6.25 mg/kg.

[31] = system: Gram-positive bacteria; assay: in vitro activity against Gram-positive bacteria; format: cell-based; details: e.g. multiple drug resistant Enterococcus faecium

Q: `C=C(NC(=O)c1csc(-c2nc3c(cc2O)-c2nc(cs2)C(=O)NC(C(C)O)C(=O)NC(=C(C)OC)c2nc(cs2)C(=O)NC2c4nc(cs4)C(=O)NC(COC(=O)c4c5c6c(cccc6n4O)COC(=O)C(OC4CC(C)(O)C(N(C)C)C(C)O4)C2OC5)c2nc-3cs2)n1)C(N)=O` (stereo not shown) [Nocathiacin I] was tested. Which MIC [1] did it give?
A: The MIC was 0.001 µg/mL (≈ 0.000696 µM).

Q: And the MIC [2]?
A: Its MIC is 0.001 µg/mL (≈ 0.000696 µM).

Q: What about the MIC [3] of the same molecule?
A: The MIC was 0.001 µg/mL (≈ 0.000696 µM).

Q: What about the MIC [4] of the same molecule?
A: The MIC was 0.001 µg/mL (≈ 0.000696 µM).

Q: What about the MIC ([5]; A20688) of the same molecule?
A: The MIC was 0.03 µg/mL (≈ 0.0209 µM).

Q: What about the MIC ([5]; A20688, + 50% calf serum) of the same molecule?
A: The MIC was 0.25 µg/mL.

Q: And the MIC [6]?
A: The MIC was 0.03 µg/mL (≈ 0.0209 µM).

Q: And the MIC [7]?
A: Its MIC is 0.015 µg/mL (≈ 0.0104 µM).

Q: What about the MIC [8] of the same molecule?
A: Its MIC is 0.125 µg/mL (≈ 0.087 µM).

Q: And the MIC [9]?
A: Its MIC is 0.015 µg/mL (≈ 0.0104 µM).

Q: What about the MIC [10] of the same molecule?
A: Its MIC is 0.001 µg/mL (≈ 0.000696 µM).

Q: What about the MIC ([11]; + 50% calf serum) of the same molecule?
A: Its MIC is 0.015 µg/mL.

Q: What about the MIC ([11]; β-lactamase positive) of the same molecule?
A: The MIC was 0.007 µg/mL (≈ 0.00487 µM).

Q: And the MIC [12]?
A: Its MIC is 0.007 µg/mL (≈ 0.00487 µM).

Q: And the MIC ([13]; + 50% calf serum)?
A: The MIC was 0.007 µg/mL.

Q: What about the MIC ([13]; hetero methicillin resistant) of the same molecule?
A: Its MIC is 0.003 µg/mL (≈ 0.00209 µM).

Q: And the MIC ([14]; + 50% calf serum)?
A: The MIC was 0.001 µg/mL.

Q: What about the MIC ([14]; homo methicillin resistant) of the same molecule?
A: The MIC was 0.003 µg/mL (≈ 0.00209 µM).

Q: What about the MIC [15] of the same molecule?
A: Its MIC is 0.003 µg/mL (≈ 0.00209 µM).

Q: What about the MIC [16] of the same molecule?
A: The MIC was 0.001 µg/mL (≈ 0.000696 µM).

Q: And the MIC [17]?
A: The MIC was 0.003 µg/mL (≈ 0.00209 µM).

Q: What about the MIC [18] of the same molecule?
A: Its MIC is 0.03 µg/mL (≈ 0.0209 µM).

Q: What about the MIC [19] of the same molecule?
A: Its MIC is over 128 µg/mL.

Q: What about the MIC [20] of the same molecule?
A: The MIC was over 128 µg/mL.

Q: And the MIC [21]?
A: Its MIC is over 128 µg/mL.

Q: What about the MIC [22] of the same molecule?
A: The MIC was over 128 µg/mL.

Q: What about the MIC [23] of the same molecule?
A: Its MIC is 0.06 µg/mL (≈ 0.0417 µM).

Q: What about the MIC [24] of the same molecule?
A: The MIC was 0.06 µg/mL (≈ 0.0417 µM).

Q: What about the MIC [25] of the same molecule?
A: Its MIC is over 128 µg/mL.

Q: What about the MIC [26] of the same molecule?
A: The MIC was over 128 µg/mL.

Q: And the MIC [27]?
A: The MIC was over 128 µg/mL.

Q: What about the MIC [28] of the same molecule?
A: Its MIC is over 128 µg/mL.

Q: And the MIC [29]?
A: The MIC was over 128 µg/mL.

Q: And the ED50 ([30]; Staphylococcus aureus, A15090, sc, systemic infection model, female ICR mice, read-out: PD50)?
A: The ED50 was under 6.25 mg/kg.

Q: What about the signs of toxicity ([30]; 100 mg/kg total dose (2×50 mg/kg at 1 and 4 hours post-infection)) of the same molecule?
A: Its signs of toxicity is “no signs of toxicity”.

Q: And the “animals survived the duration of the experiment” value ([30]; 100 mg/kg total dose (2×50 mg/kg at 1 and 4 hours post-infection), IP infection 6.5×10^6 CFU)?
A: Its value is “Nine out of nine”.

Q: And the “inhibitory activity against Gram-positive bacteria” value [31]?
A: The value was “inhibitory activity at the nanomolar level”.

Source: patent US6218398A, “Nocathiacin antibiotics” (Bristol-Myers Squibb Company, priority 1999, dated 2001)
